The text below walks through data of patent publication EP3928779A1 (Chugai Seiyaku Kabushiki Kaisha, priority 2014, dated 2016).

The test deals with rat small-intestinal brush border membrane vesicles. Kind of test: Inhibitory effect on 33PO4 uptake into rat small-intestinal brush border membrane vesicles (rapid filtration method). Type of test: biochemical. Conditions: 33PO4 uptake into rat small-intestinal BBMVs; test compound 1 µM; reacted for 60 seconds. On the procedure:
Brush border membrane vesicles (BBMVs) were prepared using the upper region of the small intestine of each Wistar female rat (4-5 weeks old). […] The ^33PO4 transport activity of the small-intestinal BBMVs was determined by the rapid filtration method. […] Then, ice-cold buffer C (110 mM NaCl, 1 mM KH2PO4, and 10 mM HEPES (pH 7.5)) was added to each reaction mixture, which was immediately suctionfiltered through a Millipore filter. The filter was washed with buffer C, and each sample was then dissolved in a liquid scintillator. The amount of ^33PO4 uptake into BBMVs was measured using a liquid scintillation counter. […]
As for `CN1N(Cc2cccc(F)c2F)C(=O)C(C(=O)Nc2ccc(C(F)(F)F)nc2-c2ccc(C(F)(F)F)nc2)=C(O)C1(C)C` [Example 304], the “Rate of uptake inhibition (%) (1 µM)” value is 51%.
With `C[C@]12CCCN1N(Cc1c(Cl)cc(OCCN3CCOCC3)cc1Cl)C(=O)C(C(=O)Nc1cnc(C(F)(F)F)nc1-c1ccc(C(F)(F)F)nc1)=C2O.Cl` [Example 146, (4aR)-1-[[2,6-Dichloro-4-(2-morpholin-4-ylethoxy)phenyl]methyl]-4-hydroxy-4a-methyl-2-oxo-N-[2-(trifluoromethyl)-4-[6-(trifluoromethyl)pyridin-3-yl]pyrimidin-5-yl]-6,7-dihyvdro-5H-pyrrolo[1,2-b]pyridazine-3-carboxamide hydrochloride] the figure was 71%; with `C[C@]12CCCN1N(Cc1ccc(CCCCCCC(=O)O)c(F)c1F)C(=O)C(C(=O)Nc1ccc(Cl)cc1-c1ccc(C(F)(F)F)nc1)=C2O` [Example 116, 7-[4-[[(4aR)-3-[[4-Chloro-2-[6-(trifluoromethyl)pyridin-3-yl]phenyl]carbarnoyl]-4-hydroxy-4a-methyl-2-oxo-6,7-dihydro-5H-pyrrolo[1,2-b]pyridazin-1-yl]methyl]-2,3-difluorophenyl]heptanoate], 72%.
With `C[C@]12CCCN1N(Cc1ccccc1Cl)C(=O)C(C(=O)Nc1ccc(C(F)(F)F)cc1-c1ccc(C(F)(F)F)nc1)=C2O` [Example 168] the figure was 72%; with `CCC1(CC)C(O)=C(C(=O)Nc2ccc(Cl)cc2-c2cc(C(F)(F)F)ncn2)C(=O)N(Cc2ccc(OCCN3CCOCC3)c(F)c2F)N1C` [Example 292], 44%; with `COCCOCCOCCCCCCCCN1C(=O)C(C(=O)Nc2ccc(C(F)(F)F)cc2-c2cc(C(F)(F)F)ncn2)=C(O)[C@@]2(C)CCCN12` [Example 236, (4aR)-4-Hydroxy-1-[8-[2-(2-methoxyethoxy)ethoxy]octyl]-4a-methyl-2-oxo-N-[4-(trifluoromethyl)-2-[6-(trifluoromethyl)pyrimidine-4-yl]phenyl]-6,7-dihydro-5H-pyrrolo[1,2-b]pyridazine-3-carboxamide], 60%.
With `CN1N(Cc2ccc(OC3COC3)c(F)c2F)C(=O)C(C(=O)Nc2ccc(C(F)(F)F)cc2-c2cc(C(F)(F)F)ncn2)=C(O)C12CCC2` [Example 403, 6-(2,3-Difluoro-4-(oxetan-3-yloxy)benzyl)-9-hydroxy-5-methyl-7-oxo-N-(4-(trifluoromethyl)-2-(6-(trifluoromethyl)pyrimidin-4-yl)phenyl)-5,6-diazaspiro[3.5]non-8-ene-8-carboxamide] the figure was 71%; with `COC(=O)CN(C)CCOc1ccc(CN2C(=O)C(C(=O)Nc3ccc(C(F)(F)F)cc3-c3cc(C(F)(F)F)ncn3)=C(O)C3(CCCC3)N2C)c(F)c1F` [Example 368], 26%; with `C[C@]12CCCN1N(Cc1cccc(F)c1Cl)C(=O)C(C(=O)Nc1ccc(C(F)(F)F)cc1-c1ccc(C(F)(F)F)nc1)=C2O` [Example 201], 77%.
Turning to `CN1N(Cc2ccc(OCCCC(=O)O)c(F)c2F)C(=O)C(C(=O)Nc2ccc(C(F)(F)F)cc2-c2cc(C(F)(F)F)ncn2)=C(O)C12CCCC2` [Example 332, 4-[2,3-Difluoro-4-[[10-hydroxy-6-methyl-8-oxo-9-[[4-(trifluoromethyl)-2-[6-(trifluoromethyl)pyrimidin-4-yl]phenyl]carbamoyl]-6,7-diazaspiro[4.5]dec-9-en-7-yl]methyl]phenoxy]butanoate], the “Rate of uptake inhibition (%) (1 µM)” value is recorded as 3%.
For the compound `C[C@@]12CCCN1N(Cc1ccc(OCCN3CCOCC3)c(F)c1F)C(=O)C(C(=O)Nc1ccc(C(F)(F)F)cc1-c1cc(C(F)(F)F)ncn1)=C2O.Cl` [Example 108], the “Rate of uptake inhibition (%) (1 µM)” value was 54%.
Under `CN(C[C@H](O)[C@@H](O)[C@H](O)[C@H](O)CO)C(=O)CCOCCOCCOc1ccc(CN2C(=O)C(C(=O)Nc3ccc(C(F)(F)F)cc3-c3cc(C(F)(F)F)ncn3)=C(O)C3(CCCC3)N2C)c(F)c1F` [Example 422] stands 29%; under `C[C@]12CCCN1N(Cc1c(F)cc(C#CC3(O)CCCC3)cc1F)C(=O)C(C(=O)Nc1ccc(C(F)(F)F)cc1-c1ccc(C(F)(F)F)nc1)=C2O` [Example 130], 72%; under `COCCN1CC[C@@H](Oc2ccc(CN3C(=O)C(C(=O)Nc4ccc(C(F)(F)F)cc4-c4cc(C(F)(F)F)ncn4)=C(O)C4(CCC4)N3C)c(F)c2F)C1` [Example 405, 6-[[2,3-Difluoro-4-[(3R)-1-(2-methoxyethyl)pyrrolidin-3-yl]oxyphenyl]methyl]-9-hydroxy-5-methyl-7-oxo-N-[4-(trifluoromethyl)-2-[6-(trifluoromethyl)pyrimidin-4-yl]phenyl]-5,6-diazaspiro[3.5]non-8-ene-8-carboxamide], 30%.
With `C[C@]12CCCN1N(Cc1cccc(F)c1F)C(=O)C(C(=O)Nc1ccc(C(F)(F)F)cc1-c1cnc3ccccc3c1)=C2O` [Example 83] the figure was 90%; with `CN1N(Cc2ccc(OCCN3CCOCC3(C)C)c(F)c2F)C(=O)C(C(=O)Nc2ccc(C(F)(F)F)cc2-c2cc(C(F)(F)F)ncn2)=C(O)C12CCC2` [Example 341], 64%.
Under `CCOc1cccc(-c2cc(C(F)(F)F)ccc2NC(=O)C2=C(O)[C@@]3(C)CCCN3N(Cc3cccc(F)c3F)C2=O)c1OC` [Example 66] stands 96%; under `COCCN1CCC[C@H]1COc1ccc(CN2C(=O)C(C(=O)Nc3ccc(C(F)(F)F)cc3-c3cc(C(F)(F)F)ncn3)=C(O)C3(CCC3)N2C)c(F)c1F` [Example 404, 6-[[2,3-Difluoro-4-[[(2S)-1-(2-methoxyethyl)pyrrolidin-2-yl]methoxy]phenyl]methyl]-9-hydroxy-5-methyl-7-oxo-N-[4-(trifluoromethyl)-2-[6-(trifluoromethyl)pyrimidin-4-yl]phenyl]-5,6-diazaspiro[3.5]non-8-ene-8-carboxamide], 43%; under `CCC1(CC)C(O)=C(C(=O)Nc2ccc(C(F)(F)F)cc2-c2ccc(C(F)(F)F)nc2)C(=O)N(Cc2ccc(OCCN3CCOCC3)c(F)c2F)N1C` [Example 293], 47%.
Regarding `C[C@]12CCCN1N(Cc1cc(F)cc(F)c1)C(=O)C(C(=O)Nc1cc(F)c(Br)c(F)c1)=C2O` [Example 190], the “Rate of uptake inhibition (%) (1 µM)” value is 84%.
With `CN1N(Cc2ccc(OCCN3CCN(S(C)(=O)=O)CC3)c(F)c2F)C(=O)C(C(=O)Nc2ccc(C(F)(F)F)cc2-c2cc(C(F)(F)F)ncn2)=C(O)C12CCCC2` [Example 379] the figure was 37%; with `CN1[C@@H](C(C)(C)C)C(O)=C(C(=O)Nc2ccc(C(F)(F)F)cc2C(F)(F)F)C(=O)N1Cc1ccc(OCCN2CCOCC2)c(F)c1F` [Example 277], 41%; with `C[C@]12CCCN1N(Cc1ccc(F)cc1)C(=O)C(C(=O)Nc1ccc(C(F)(F)F)cc1-c1ccc(C(F)(F)F)nc1)=C2O` [Example 199], 79%.
With `CN1N(Cc2ccc(OC(C)(C)CN3CCOCC3)c(F)c2F)C(=O)C(C(=O)Nc2ccc(C(F)(F)F)cc2-c2cc(C(F)(F)F)ncn2)=C(O)C12CCC2` [Example 407, 6-[[2,3-Difluoro-4-(2-methyl-1-morpholin-4-ylpropan-2-yl)oxyphenyl]methyl]-9-hydroxy-5-methyl-7-oxo-N-[4-(trifluoromethyl)-2-[6-(trifluoromethyl)pyrimidin-4-yl]phenyl]-5,6-diazaspiro[3.5]non-8-ene-8-carboxamide] the figure was 30%; with `CN1N(Cc2ccc(OCCN3CC(F)(F)C3)c(F)c2F)C(=O)C(C(=O)Nc2ccc(C(F)(F)F)cc2-c2cc(C(F)(F)F)ncn2)=C(O)C12CCCC2` [Example 369], 43%.
Under `CC(C)(C)[C@H]1C(O)=C(C(=O)Nc2ccc(Cl)cc2-c2ccc(C(F)(F)F)nc2)C(=O)N(Cc2cccc(F)c2F)N1CC(F)(F)F` [Example 247] stands 51%.
`CN1[C@@H](C(C)(C)C)C(O)=C(C(=O)Nc2ccc(C(F)(F)F)cc2-c2ccc(C(F)(F)F)nc2)C(=O)N1Cc1ccc(OCCN2CCOCC2)c(F)c1F` [Example 266]: the “Rate of uptake inhibition (%) (1 µM)” value came out at 62%.
Under `CC(=O)NCCN(C)CCOc1ccc(CN2C(=O)C(C(=O)Nc3ccc(C(F)(F)F)cc3-c3cc(C(F)(F)F)ncn3)=C(O)C3(CCC3)N2C)c(F)c1F` [Example 353] stands 26%; under `C[C@]12CCCN1N(Cc1ccc(CCCOCCCO)c(F)c1F)C(=O)C(C(=O)Nc1ccc(C(F)(F)F)cc1-c1ccc(C(F)(F)F)nc1)=C2O` [Example 141], 83%.
With `CN1N(Cc2ccc(OCCN3CCOC(C)(C)C3)c(F)c2F)C(=O)C(C(=O)Nc2ccc(C(F)(F)F)cc2-c2cc(C(F)(F)F)ncn2)=C(O)C12CCC2` [Example 342] the figure was 43%; with “1-[(3-Fluorophenyl)methyl]-4-hydroxy-4a-methyl-N-[5-methyl-2-(trifluoromethyl)furan-3-yl]-2-oxo-5,6,7,8-tetrahydropyrido[1,2-b]pyridazine-3-carboxamide [Example 18]”, 12%; with `C[C@]12CCCN1N(Cc1c(F)cc(CCCCCCCOC[C@H](O)[C@@H](O)CO)cc1F)C(=O)C(C(=O)Nc1ccc(C(F)(F)F)cc1-c1ccc(C(F)(F)F)nc1)=C2O` [Example 125, (4aR)-1-[[2,6-Difluoro-4-[7-[(2S,3S)-2,3,4-trihydroxybutoxy]heptyl]phenyl]methyl]-4-hydroxy-4a-methyl-2-oxo-N-[4-(trifluoromethyl)-2-[6-(trifluoromethyl)pyridin-3-yl]phenyl]-6,7-dihydro-5H-pyrrolo[1,2-b]pyridazine-3-carboxamide], 76%.
